# Reference: US20230277553A1, “THERAPEUTIC COMPOSITION OF CURE-PRO COMPOUNDS FOR TARGETED DEGRADATION OF BET DOMAIN PROTEINS, AND METHODS OF MAKING AND USAGE” (CORNELL UNIVERSITY, priority 2020, published 2023)
# Entries after “also recorded” stand apart in the source; their conditions may differ.
# Experiments:
# Assay type in all cases: cell-based
# BRD4 [1] = target: T1, BRD4 (Homo sapiens, UniProt O60885); experiment: CURE-PRO-mediated BRD4 degradation, WES (ProteinSimple), HeLa cells; set-up: endogenous in cells; host or cells: HeLa; details: 10 μM each, 4-24 h with washout after 4 h, or 100 nM-10 μM
# Protocol: All cell lines were purchased from ATCC or DSMZ and grown at 37° C. with 5% CO2. Human HeLa cells were cultured in complete growth medium (Dulbecco's modified Eagle's medium (DMEM) supplemented with 10% FBS); MCF7 cells were cultured in complete growth medium (Dulbecco's modified Eagle's medium (DMEM) supplemented with 10% FBS and 0.01 mg/ml human recombinant insulin (Sigma Aldrich); Namalwa and MOLM-13 cells were cultured in complete growth medium (RPMI 1640 medium supplemented with 10% FBS); MV-4-11 were cultured in complete growth medium (Iscove's Modified Dulbecco's medium, supplemented with 10% FBS); HCT116 cells were cultured in complete growth medium (McCoy's 5a Medium supplemented with 10% FBS). For cellular degradation of BRD4 studies, cells were seeded in a 12-well plate at 70-80% confluency, allowed to attach overnight, and incubated with the indicated compounds for the indicated time. When indicated, a 15-minute pretreatment with 10 μM pomalidomide, 10 μM VHL298, 10 μM Nutlin3a, 1 μM MG-132 or 1 μM Carfilzomib was performed before the addition of CURE-PROs. For washout studies, after CURE-PRO treatment, media was aspirated and incubated with complete medium for the indicated time before lysis.
# Anti-BRD4 (13440, 1:1,000 dilution for Western Blot and 1:25 dilution for ProteinSimple); Anti-BRD2 (5848 1:1,000 dilution for Western Blot and 1:25 dilution for ProteinSimple); β-Actin (3700, 1:2,000 dilution for Western Blot), β-Actin (4970, 1:50 dilution for ProteinSimple) anti-mouse IgG-HRP, and anti-rabbit IgG-HRP antibodies were purchased Cell Signaling Technology. Anti-GAPDH (600-401-A33, 1:100 dilution for ProteinSimple) was purchased from Rockland Immunochemicals, Inc. Anti-BRD3 (sc-81202, 1:200 dilution for Western Blot) was purchased from Santa Cruz Biotechnology.
# WES Simple analysis was performed on WES system (ProteinSimple-Biotechne) according to the manufacturer's instructions. Total protein concentrations of cell lysates were determined by the Pierce BCA kit (Thermo Fisher). 3 μL of 0.3 μg/μL of the protein lysate was loaded onto a 12- to 230-kDa WES assay plate (ProteinSimple) where 300 nL sample was withdrawn through a capillary, subjected to electrophoretic separation of proteins by size, and followed by the simultaneous, HRP-based detection of proteins using the Anti-Rabbit Detection Module (Proteinsimple: #DM-001). The electropherograms were checked then the automatic peak detection was manually corrected if it was required.
# HeLa cells (2.5×10^6) were treated for 4-24 hours with the compounds solubilized in DMSO. After 4 hours, indicated points were washed and cells were left in full growth media. Compounds were added at 10 μM each. […]
# caspase 3/7 = experiment: Caspase-Glo 3/7 assay, Namalwa cells; details: 24 hours, 1:1 with 8047
# Protocol: Caspase-glo® assay (Promega) was conducted following the manufacturer's recommendations. Cells were seeded at a density of 5000 cells/well in a white 96 well plates (Corning, #3917) in a total volume of 100 μl with respective monomers, combinations of BRD ligands together with E3 ligase ligands or vehicle control treatment. After a 24 h incubation, 100 μl of the […] substrate was added per well and luminescence was read on a Spectramax M5 (Molecular Devices).
# Namalwa cells (5×104) were treated for 24 hours with the compounds solubilized in DMSO. FIG. 57 is a bar graph depiction of fold increase of apoptosis assessed via caspase 3/7 activity using the Caspase-glo assay (Promega) described above.
# Molm-13 (FIG. 76A) or Namalwa (FIG. 76B) cells (5×10^4) were treated for 24 hours with the compounds solubilized in DMSO in white 96 well plates (10 nM-10 μM solubilized in DMSO). FIG. 76 is a bar graph depiction of fold increase of apoptosis assessed via caspase 3/7 activity using the Caspase-glo assay (Promega) described above.
# Namalwa cells = experiment: CellTiter-Glo cell viability, Namalwa cells; details: 72 hours, 1:1 with 8047, 10 nM-10 μM each
# Protocol: CellTiter-Glo® 2.0 Cell Viability Assay (Promega) was carried out following the manufacturer's recommendations. Cells were seeded at a density of 1000 cells/well in a white 96 well plates (Corning, #3917) in a total volume of 100 μl with respective monomers, combinations of BRD ligands together with E3 ligase ligands or vehicle control treatment. After a 72 h incubation, 100 ul of the CellTiter-Glo® substrate was added per well and luminescence was read on a Spectramax M5 (Molecular Devices). Dose-response curves were generated using Graphpad Prism software.
# Namalwa cells (1×104) were treated for 72 hours with the compounds solubilized in DMSO. Compounds were added at 10 nM-10 μM each. Cellular viability was determined using the CellTiter-Glo® Luminescent Cell Viability Assay (Promega) described above. FIG. 56 depicts the CURE-PRO-mediated loss of cellular viability for the BRD-E72 monomer (JQ1 derivatives comprising of boronic acid linkers), and the CRBN ligand, 8047 (a pomalidomide derivative comprising diol linkers) combined in a 1:1 ratio.
# BRD4 [2] = target: T1, BRD4; experiment: Summary of BRD4 degradation by CURE-PRO pairs, estimated from Western Blot or WES (Proteinsimple); set-up: endogenous in cells; details: Table 1; CRBN ligand, second drawing (8047)
# Description: A black check mark indicates efficacy of 30% to 70% or higher protein degradation.
# BRD4 [3] = target: T1, BRD4; experiment: CURE-PRO-mediated BRD4 degradation, Western blot, HeLa cells; set-up: endogenous in cells; host or cells: HeLa; details: 24 h
# Method in brief: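 HeLa cells treated 24 h with compounds in DMSO (1-10 μM, 10 μM or 100 μM each; paired monomers combined 1:1), optional 15-min pretreatment with pomalidomide, VHL298, Nutlin3a (10 μM) or MG-132/carfilzomib (1 μM). RIPA lysates, 10-20 μg protein immunoblotted for BRD4 with β-actin, ECL detection.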
smiles,measurement,setting,value
"CCNC(=O)C[C@@H]1N=C(c2ccc(Cl)cc2)c2cc(-c3cccc(B(O)O)c3)ccc2-n2c(C)nnc21 [BRD-E72, (3-((4S)-6-(4-chlorophenyl)-4-(2-(ethylamino)-2-oxoethyl)-1-methyl-4H-benzo[f][1,2,4]triazolo[4,3-a][1,4]diazepin-8-yl)phenyl)boronic acid]","BRD4 degradation, co-dosing with CRBN ligand 8047 (WES)",BRD4 [1],marked BRD4 degradation after 4h with sustained degradation for up to 8h after drugs are washed out
same,"Caspase 3/7 activation, co-dosed with CRBN ligand 8047",caspase 3/7,demonstrates activation of caspase 3/7; also recorded: marked caspase activation
same,"Loss of cell viability, co-dosed with CRBN ligand 8047",Namalwa cells,increase in the loss of viability compared to monomer treatment alone; also recorded: marked loss in cell viability
same,Degradation of BRD4 in combination with CRBN ligand [drawing 371],BRD4 [2],✓ (A black check mark indicates efficacy of 30% to 70% or higher protein degradation)
same,"BRD4 degradation, BRD ligand with pomalidomide (no 8047)",BRD4 [3]; 10 μM,failed to induce BRD4 degradation
same,"BRD4 degradation, BRD ligand alone","BRD4 [3]; BRD monomer alone, Western blot",no change in expression
